Test results as given in patent US8575091B1, “Amylin analogues and pharmaceutical compositions thereof” (Novo Nordisk A/S, priority 2012, dated 2013).
Numbered stars: 1 amine (or outer) side, 2 acyl side, 3 side chain; on linkers, the order of the positions; unused ones are H or OH. Bridge positions count the residues as written; N and C are the ends. Side chains are listed from the residue outwards. Peptide text beside a SMILES is read from it. * marks the point of attachment. C20 diacid = O=C(O)CCCCCCCCCCCCCCCCCCC(=O)*; γGlu = O=C(O)[C@H](CCC(=O)[*:2])N[*:1]; AEEA = NCCOCCOCC(=O)O

Assays:
human amylin receptor = molecular target: T1, human amylin receptor (Homo sapiens, UniProt O60896+P30988); test: Assay (V) binding to the human amylin receptor (SPA, 125I-rat amylin); details: human binding ratio, included for comparison
T1 construct: expressed in transfected cells
T1 sequence (P30988 25-474): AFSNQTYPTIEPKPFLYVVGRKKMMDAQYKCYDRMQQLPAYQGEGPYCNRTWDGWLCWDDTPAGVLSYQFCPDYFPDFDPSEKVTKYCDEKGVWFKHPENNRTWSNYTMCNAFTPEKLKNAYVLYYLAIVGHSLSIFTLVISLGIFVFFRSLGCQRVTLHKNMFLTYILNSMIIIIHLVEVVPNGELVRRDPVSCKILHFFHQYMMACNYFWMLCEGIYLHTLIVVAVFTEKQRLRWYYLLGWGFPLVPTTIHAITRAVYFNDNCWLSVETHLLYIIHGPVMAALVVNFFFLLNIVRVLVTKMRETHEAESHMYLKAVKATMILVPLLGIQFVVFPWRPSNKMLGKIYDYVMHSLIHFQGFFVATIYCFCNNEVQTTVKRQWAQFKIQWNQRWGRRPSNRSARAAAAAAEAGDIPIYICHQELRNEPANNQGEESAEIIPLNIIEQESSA
T1 sequence (O60896 24-148 partner): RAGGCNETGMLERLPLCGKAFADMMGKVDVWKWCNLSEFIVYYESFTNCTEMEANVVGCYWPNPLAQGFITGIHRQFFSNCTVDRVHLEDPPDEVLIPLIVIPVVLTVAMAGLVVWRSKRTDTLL
Procedure, shortened: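 SPA competition binding on membranes from Amylin 3(a)/CRE-luc cells, 35 ng/μL membranes with 0.05 mg/well beads. Buffer 50 mM Hepes pH 7.4, 1 mM CaCl2, 5 mM MgCl2, 0.1% OA, 0.02% Tween20. IC50 from one-site competition fit as affinity measure.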

[1] = molecular target: T2, human amylin receptor (amylin 3(a) receptor: human calcitonin receptor + RAMP-3) (Homo sapiens, UniProt O60896+P30988); test: Assay (II)a functional assay, human amylin receptor (CRE luciferase, BHK cells); format: cell-based
T2 construct: expressed in transfected cells
T2 sequence (P30988 25-474): T1 sequence (P30988 25-474)
T2 sequence (O60896 24-148 partner): T1 sequence (O60896 24-148 partner)

rat amylin receptor = molecular target: T3, rat amylin receptor (Rattus norvegicus, UniProt P32214+Q9JJ73); test: Assay (VI) binding to the rat amylin receptor; details: rCTR bind IC50 divided by rAmylin-R bind IC50
T3 construct: expressed in transfected cells; host or cells: BHK tk'ts 13 (transient, FuGENE 6), membranes
T3 sequence (P32214 25-479 isoform P32214-2 limits assumed): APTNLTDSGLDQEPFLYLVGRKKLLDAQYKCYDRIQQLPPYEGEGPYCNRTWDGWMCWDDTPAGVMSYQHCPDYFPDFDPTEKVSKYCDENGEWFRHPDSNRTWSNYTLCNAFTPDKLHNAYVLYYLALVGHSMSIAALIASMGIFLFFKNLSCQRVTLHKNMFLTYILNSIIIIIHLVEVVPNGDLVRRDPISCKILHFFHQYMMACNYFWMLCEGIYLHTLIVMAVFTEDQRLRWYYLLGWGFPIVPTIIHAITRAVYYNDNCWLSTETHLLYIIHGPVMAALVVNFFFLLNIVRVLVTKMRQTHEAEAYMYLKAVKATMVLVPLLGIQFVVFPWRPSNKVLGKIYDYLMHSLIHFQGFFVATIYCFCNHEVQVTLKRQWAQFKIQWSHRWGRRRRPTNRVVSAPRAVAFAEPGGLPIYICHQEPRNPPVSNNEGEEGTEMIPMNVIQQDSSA
T3 sequence (Q9JJ73 23-147 partner): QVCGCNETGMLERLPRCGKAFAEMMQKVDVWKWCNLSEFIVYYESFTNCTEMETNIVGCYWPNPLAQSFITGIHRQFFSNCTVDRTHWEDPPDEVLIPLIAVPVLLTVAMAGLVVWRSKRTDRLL
Description: Assay (VI)—Determination of the Binding to the Rat Amylin Receptor
The assay was performed as described above (Assay (V)—Determination of binding to the human amylin receptor) with the exception that we used membranes prepared from BHK tk'ts 13 cells that were transiently transfected with the rat calcitonin receptor rat RAMP 3 at an equimolar ratio […]. The BHK tk'ts 13 cells were transiently transfected with rat calcitonin receptor using FuGENE® 6 (Roche), according to the manufacturer's recommendations. Cells were grown in DMEM with 10% FBS and 1% Pen/Strep. Approximately 48 hours after transfection, the cells were harvested and membranes were prepared.

[2] = Table 6, human functional selectivity (hCTR EC50 / hAmylin-R EC50)

Structure (SMILES)	Ratio hCT/hAmylin binding (human amylin receptor)	Ratio hCT/hAmylin funct. [1, 2]	Ratio hCT/hAmylin funct. ([1]; hCTR funct. EC50 divided by hAmylin-R funct. EC50)	Ratio rCT/rAmylin binding (rat amylin receptor)	Ratio rCT/rAmylin binding (rat amylin receptor; Table 7b)	Ratio rCT/rAmylin binding (rat amylin receptor; Table 7c)	Ratio hCT/hAmylin funct. ([1]; Table 6i, hCTR funct. EC50 / hAmylin-R funct. EC50)
CC[C@H](C)[C@H](NC(=O)[C@@H]1CCCN1C(=O)CNC(=O)[C@H](Cc1ccccc1)NC(=O)[C@H](CC(N)=O)NC(=O)[C@@H]1CCCN1C(=O)[C@H](CO)NC(=O)[C@H](CO)NC(=O)[C@H](Cc1c[nH]cn1)NC(=O)[C@H](CCCNC(=N)N)NC(=O)[C@H](CC(C)C)NC(=O)[C@H](Cc1ccccc1)NC(=O)[C@H](CCC(=O)O)NC(=O)[C@H](C)NC(=O)[C@H](CC(C)C)NC(=O)[C@H](CCCNC(=N)N)NC(=O)[C@H](CCC(N)=O)NC(=O)[C@@H](NC(=O)[C@H](C)NC(=O)[C@@H]1CSSC[C@H](NC(=O)[C@H](CCCCN)NC(=O)CC[C@H](NC(=O)CCCCCCCCCCCCCCCCCCC(=O)O)C(=O)O)C(=O)N[C@@H](CC(N)=O)C(=O)N[C@@H]([C@@H](C)O)C(=O)N[C@@H](C)C(=O)N[C@@H]([C@@H](C)O)C(=O)N1)[C@@H](C)O)C(=O)N[C@@H](CC(C)C)C(=O)N1CCC[C@H]1C(=O)N1CCC[C@H]1C(=O)N[C@H](C(=O)N[C@@H](CC(N)=O)C(=O)N[C@H](C(=O)NCC(=O)N[C@@H](CO)C(=O)N[C@@H](CC(N)=O)C(=O)N[C@H](C(=O)N1CCC[C@H]1C(N)=O)[C@@H](C)O)C(C)C)[C@@H](C)O [Example 4] ({C20 diacid-γGlu}-KCNTATCATQRLAEFLRHSSPNFGPILPPTNVGSNTP-NH2; disulfide 2-7)	2.1	1.2	1.2	3.1			
CC[C@H](C)[C@H](NC(=O)[C@H](C)NC(=O)CNC(=O)[C@H](Cc1ccccc1)NC(=O)[C@H](CC(N)=O)NC(=O)[C@@H]1CCCN1C(=O)[C@H](CO)NC(=O)[C@H](CO)NC(=O)[C@H](Cc1c[nH]cn1)NC(=O)[C@H](CCCNC(=N)N)NC(=O)[C@H](CC(C)C)NC(=O)[C@H](Cc1ccccc1)NC(=O)[C@H](CC(N)=O)NC(=O)[C@H](C)NC(=O)[C@H](CC(C)C)NC(=O)[C@H](CCCNC(=N)N)NC(=O)[C@H](CCC(N)=O)NC(=O)[C@@H](NC(=O)[C@H](C)NC(=O)[C@@H]1CSSC[C@H](NC(=O)[C@@H](N)CCCCNC(=O)COCCOCCNC(=O)CC[C@H](NC(=O)CCCCCCCCCCCCCCCCCCC(=O)O)C(=O)O)C(=O)N[C@@H](CC(N)=O)C(=O)N[C@@H]([C@@H](C)O)C(=O)N[C@@H](C)C(=O)N[C@@H]([C@@H](C)O)C(=O)N1)[C@@H](C)O)C(=O)N1CCC[C@H]1C(=O)N[C@@H](CO)C(=O)N[C@@H](CO)C(=O)N[C@H](C(=O)N[C@@H](CC(N)=O)C(=O)N[C@H](C(=O)NCC(=O)N[C@@H](CO)C(=O)N[C@@H](CC(N)=O)C(=O)N[C@H](C(=O)N[C@@H](Cc1ccc(O)cc1)C(N)=O)[C@@H](C)O)C(C)C)[C@@H](C)O [Example 41]				54.0	54.0	54.0	
CC[C@H](C)[C@H](NC(=O)[C@H](C)NC(=O)CNC(=O)[C@H](Cc1ccccc1)NC(=O)[C@H](CC(N)=O)NC(=O)[C@@H]1CCCN1C(=O)[C@H](CO)NC(=O)[C@H](CO)NC(=O)[C@H](Cc1c[nH]cn1)NC(=O)[C@H](CCCNC(=N)N)NC(=O)[C@H](CC(C)C)NC(=O)[C@H](Cc1ccccc1)NC(=O)[C@H](CCCNC(=N)N)NC(=O)[C@H](C)NC(=O)[C@H](CC(C)C)NC(=O)[C@H](CCCNC(=N)N)NC(=O)[C@H](CCC(N)=O)NC(=O)[C@@H](NC(=O)[C@H](C)NC(=O)[C@@H]1CSSC[C@H](NC(=O)[C@@H](N)CCCCNC(=O)COCCOCCNC(=O)CC[C@H](NC(=O)CCCCCCCCCCCCCCCCCCC(=O)O)C(=O)O)C(=O)N[C@@H](CC(N)=O)C(=O)N[C@@H]([C@@H](C)O)C(=O)N[C@@H](C)C(=O)N[C@@H]([C@@H](C)O)C(=O)N1)[C@@H](C)O)C(=O)N1CCC[C@H]1C(=O)N[C@@H](CO)C(=O)N[C@@H](CO)C(=O)N[C@H](C(=O)N[C@@H](CC(N)=O)C(=O)N[C@H](C(=O)NCC(=O)N[C@@H](CO)C(=O)N[C@@H](CC(N)=O)C(=O)N[C@H](C(=O)N[C@@H](Cc1ccc(O)cc1)C(N)=O)[C@@H](C)O)C(C)C)[C@@H](C)O [Example 82] (H-K([AEEA-γGlu-C20 diacid])CNTATCATQRLARFLRHSSPNFGAIPSSTNVGSNTY-NH2; disulfide 2-7 (inferred); N-terminus and C-terminus assumed)				87.0	87.0	87.0	
CC(C)C[C@H](NC(=O)[C@H](CCCNC(=N)N)NC(=O)[C@H](CCC(N)=O)NC(=O)[C@@H](NC(=O)[C@H](C)NC(=O)[C@@H]1CSSC[C@H](NC(=O)[C@H](CCCCN)NC(=O)CC[C@H](NC(=O)CCCCCCCCCCCCCCCCCCC(=O)O)C(=O)O)C(=O)N[C@@H](CC(N)=O)C(=O)N[C@@H]([C@@H](C)O)C(=O)N[C@@H](C)C(=O)N[C@@H]([C@@H](C)O)C(=O)N1)[C@@H](C)O)C(=O)N[C@@H](C)C(=O)N[C@@H](CCC(=O)O)C(=O)N[C@@H](Cc1ccccc1)C(=O)N[C@@H](CC(C)C)C(=O)N[C@@H](CCCNC(=N)N)C(=O)N[C@@H](Cc1c[nH]cn1)C(=O)N[C@@H](CO)C(=O)N[C@@H](CO)C(=O)N1CCC[C@H]1C(=O)N[C@@H](CC(N)=O)C(=O)N[C@@H](Cc1ccccc1)C(=O)NCC(=O)N[C@@H](C)C(=O)N1CCC[C@H]1C(=O)N[C@@H](CC(C)C)C(=O)N[C@@H](CO)C(=O)N[C@@H](CO)C(=O)N[C@H](C(=O)N[C@@H](CC(N)=O)C(=O)N[C@H](C(=O)NCC(=O)N[C@@H](CO)C(=O)N[C@@H](CC(N)=O)C(=O)N[C@H](C(=O)N[C@@H](Cc1ccc(O)cc1)C(N)=O)[C@@H](C)O)C(C)C)[C@@H](C)O [Example 7] ({C20 diacid-γGlu}-KCNTATCATQRLAEFLRHSSPNFGAPLSSTNVGSNTY-NH2; disulfide 2-7)		4.5		42.0	42.0		4.5
CC[C@H](C)[C@H](NC(=O)[C@H](C)NC(=O)CNC(=O)[C@H](Cc1ccccc1)NC(=O)[C@H](CC(N)=O)NC(=O)[C@@H]1CCCN1C(=O)[C@H](CO)NC(=O)[C@H](CO)NC(=O)[C@H](Cc1c[nH]cn1)NC(=O)[C@H](CCCNC(=N)N)NC(=O)[C@H](CC(C)C)NC(=O)[C@H](Cc1ccccc1)NC(=O)[C@H](CC(=O)O)NC(=O)[C@H](C)NC(=O)[C@H](CC(C)C)NC(=O)[C@H](CCCNC(=N)N)NC(=O)[C@H](CCC(N)=O)NC(=O)[C@@H](NC(=O)[C@H](C)NC(=O)[C@@H]1CSSC[C@H](NC(=O)[C@@H](N)CCCCNC(=O)CC[C@H](NC(=O)CCCCCCCCCCCCCCCCCCC(=O)O)C(=O)O)C(=O)N[C@@H](CC(N)=O)C(=O)N[C@@H]([C@@H](C)O)C(=O)N[C@@H](C)C(=O)N[C@@H]([C@@H](C)O)C(=O)N1)[C@@H](C)O)C(=O)N1CCC[C@H]1C(=O)N[C@@H](CO)C(=O)N[C@@H](CO)C(=O)N[C@H](C(=O)N[C@@H](CC(N)=O)C(=O)N[C@H](C(=O)NCC(=O)N1CCC[C@H]1C(=O)N[C@@H](CCC(=O)O)C(=O)N[C@H](C(=O)N[C@@H](Cc1ccc(O)cc1)C(N)=O)[C@@H](C)O)C(C)C)[C@@H](C)O [Example 123] (H-K([γGlu-C20 diacid])CNTATCATQRLADFLRHSSPNFGAIPSSTNVGPETY-NH2; disulfide 2-7 (inferred); N-terminus and C-terminus assumed)		3.9		62.0	62.0		
